Entries after “also recorded” stand apart in the source; their conditions may differ.

In one data set the test system is alopecia. As to conditions: cited from earlier work.
The nature of data set [1]: Solubility of ingredients in solvents during preparation. As to conditions: qualitative.
Procedure: 3 grams of azelaic acid was ground up into a powder from “hairs” of this dicarboxylic acid. […] Next, 50 mg of vinpocetine is added to the mortar and also ground to a powder. The use of 10 mg tablets of vinpocetine can be used if the raw material in not available. […] At this point 26 cc (or ml) of isopropyl alcohol is added to the mortar and mixed to form the first suspension. […] These two powders are soluble in water which 5 ml of sterile water is added and stirred. At the point the two products can be combines with the final addition of 12 ml of propylene glycol. […] The final volume of 60 ml can be achieved by the “qs” or “adding up to” the 60 ml mark with sterile water.

Regarding `CC(C)(C)NC(=O)[C@H]1CC[C@H]2[C@@H]3CC[C@H]4NC(=O)C=C[C@]4(C)[C@H]3CC[C@]12C` [Finasteride], the “time to loss of new hair after treatment is stopped” value in the data set on alopecia (after finasteride treatment is stopped) was no more than 1 year. Besides, the “time to occurrence of hair growth” value in the data set on alopecia (balding men, after start of use) was “about 3 months”. In addition, in the data set on alopecia (reported success rate), the “success rate for treating alopecia” value is listed as 40%.
`CCOC(=O)C1=C[C@]2(CC)CCCN3CCc4c(n1c1ccccc41)[C@@H]32` [Vinpocetine, 14-ethoxycarbonyl-3 alpha, 16 alpha-ethyl-14, 15-ebumamine]: the “solubility in isopropyl alcohol” value in data set [1] is given as “slightly soluable”. Besides, the “solubility in organic solvents” value in data set [1] (solvents named in value) is on record as “only soluable in DMSO, 100% ethanol or acetone; also recorded: only soluble in DMSO, 100% ethanol or acetone”.

The record behind these values is patent US20070081967A1, “Revitalizing hair follicles with total parenteral nutrition or hyperalimentation for maximum hair growth” (priority 2005, published 2007).
